This is an account of results in patent US11202779B2, “Combinations for the treatment of neoplasms using quiescent cell targeting with EGFR inhibitors” (Felicitex Therapeutics, Inc., priority 2016, dated 2021).

One assay concerns SW620 cells. Kind of assay: FACS analysis of cell cycle distribution by DNA content (propidium iodide), SW620. The settings on record: 24 hours in FBS− media, AZ191 2.5, 5, 10 μM, Compound I-7 1.25, 2.5, 5 μM. The format is cell-based. On the procedure: The SW620 cells were cultured and treated as described in Example 1. For propidium iodide (PI) staining, manufacturer's protocol supplied with the Guava Cell Cycle Reagent for Flow Cytometry (EMD Millipore) was followed. The measurements were performed with Guava PCA-96 flow cytometer (EMD Millipore) using the green laser for excitation at 535 nm and monitoring emission at 617 nm.
The SW620 cells were cultured, treated, and analyzed as described in Examples 1. For propidium iodide (PI) staining, manufacturer's protocol supplied with the Guava Cell Cycle Reagent for Flow Cytometry (EMD Millipore) was followed. The measurements were performed with Guava PCA-96 flow cytometer (EMD Millipore) using the green laser for excitation at 535 nm and monitoring emission at 617 nm.
In general terms: A flow cytometer gives signals particle by particle.

Assay [1] concerns DYRK1B. Particulars: literature value; read-out: inhibits DYRK1B at; cited from earlier work.
Another assay relates to quiescent cancer cells. The settings on record: in vitro, literature; cited from earlier work.
A further assay relates to PC9 cells. Put plainly: Cell viability assay in 2D cell culture (CellTiter-Glo), PC9. The format is cell-based. Particulars: Homo sapiens, PC-9, 96 h. The source says:
(§1) The following cell lines were obtained from ATCC and cultured according to the ATCC recommendations: H1975—non-small cell lung cancer cell line harboring L858R and T790M mutations; HCC827—non-small cell lung cancer cell line with E746-A750 deletion in EGFR TK; PC9—non-small cell lung cancer cell line with E746-A750 deletion in EGFR TK; A549—non-small cell lung cancer cell line with wild type EGFR; PANC1—pancreatic cancer cell line; MiaPaCa-2—pancreatic cancer cell line, and SW620—colon cancer cell line. Cell cultures of these lines were seeded into 6-well plates at 3×10^5−6×10^5 cells/well; the plated number of cells depended on cell size and rate of proliferation, aiming for approximately 50% confluency. After seeding, the cells were allowed to attach for 24 hours while incubated at 37° C. in a humidified 5% CO2 atmosphere, and then treated with compounds for desired amount of time (usually 24 hours) incubating under same conditions. Then the cells were harvested by trypsinization, pooled with the floating cells, washed in PBS, and fixed in 70% ice-cold ethanol overnight. For Acridine Orange (AO) staining, fixed cells were washed once with ice-cold PBS, re-suspended in 100 μL PBS, followed by addition of 200 μL of permeabilizing solution and 600 μL AO staining solution.
(§2) For viability analysis, cells were seeded into 96-well plates at 2×10^3-6×10^3 cells/well; depending on cell size and rate of proliferation aiming for approximately 50% confluency. Cells were allowed to attach for 24 hours incubated at 37° C. in a humidified 5% CO2 atmosphere. The treatments were performed using at least 6 different concentrations of a compound in 1:3 serial dilutions. Before reading the results cells were incubated for 96 hours in 5% CO2 incubator at 37° C. Each treatment was performed in triplicate. Results were analyzed by CellTiter-Glo™ Luminescent Cell Viability Assay (Promega, cat. # G7571) according to the manufacturer's instructions using SpectraMAX Gemini Spectrophotometer (Molecular Devices).
(In general: Cellular ATP, detected with luciferase, serves as a proxy for viable cell number.)

A further assay has as its system A549 cells. Kind of assay: Cell viability assay in 2D cell culture (CellTiter-Glo), A549. The assay is classed as cell-based. Particulars: Homo sapiens, A549, 96 h.
Excerpt: as §1, §2

In a further assay the test system is PANC1 cells. Put plainly: Cell viability assay in 2D cell culture (CellTiter-Glo), PANC1. The format is cell-based. The settings on record: Homo sapiens, PANC-1, 96 h.
The subject of assay [2] is H1975 cells. Put plainly: Cell viability assay in 2D cell culture (CellTiter-Glo), H1975. Particulars: Homo sapiens, NCI-H1975, 96 h. The format is cell-based.
Assay [3] concerns phosphorylated Y1068-EGFR. Kind of assay: Western blot, EGFR phosphorylation in H1975 cells. The assay is classed as cell-based. The settings on record: 24 hours treatment. On the procedure:
(§3) For Western Blot analysis cells were seeded into 6-well plates at 5×10^5-9×10^5 cells/well (depending on the cell size and rate of proliferation), allowed to attach for 24 hours, then treated with compounds for 24 hours, and harvested. Immunoblotting was performed using conventional techniques, as described in Cell Signaling Technologies Western Blotting protocol (www.cellsignal.com).
In general terms: In western blotting, separated proteins are transferred to a membrane and probed.

For assay [4], the system named is DYRK1B. Kind of assay: Western blot, DYRK1B expression in H1975 cells. The format is cell-based. Particulars: 24 hours treatment, compared to untreated cells in FBS+ or FBS− medium. On the procedure: as §3
For the next assay, the system named is MiaPaCa-2 cells. Kind of assay: Cell viability assay in 2D cell culture (CellTiter-Glo), MiaPaCa-2. The assay is classed as cell-based. The settings on record: Homo sapiens, MIA PaCa-2, 96 h.
Excerpt: as §1, §2

Assay [5] relates to PC9 human non-small cell lung cancer cells. The settings on record: exposure of PC9 cells, literature; cited from earlier work.
The test system of the next assay is H1975 spheroids. Put plainly: Cell viability assay in 3D cell culture (spheroids), H1975. The assay is classed as cell-based. Particulars: Homo sapiens, NCI-H1975, 168 h, seven days. On the procedure: Each treatment was performed in triplicate.
Cells were incubated for 2-3 days (depending on the cell line) at 37° C. in a humidified 5% CO2 atmosphere allowing for tight spheroid formation. For the treatment, 50 μL of media was removed from each well and replaced with fresh media with compounds. […] Before reading the results, cells were incubated for the period of 4-10 days in 5% CO2 incubator at 37° C. If the treatment time exceeded 4 days, […] in each well was replaced with fresh media containing the test compound every fourth day. Each treatment was performed in duplicate. […] Prior to analysis, the spheroids were photographed at 50× magnification.

In assay [6] the test system is H1975 cells. Put plainly: FACS analysis of cell cycle distribution (Acridine Orange), H1975. The format is cell-based. Particulars: 24 hours.
The mark [7] stands for this setting: EGFR inhibitor alone (Compound I-5 / I-7 not present).
The mark [8] stands for this setting: EGFR inhibitor alone (Compound I-7 not present).
Setting [9] is: Compound I-7 present at 2 μM, read-out: EC50.
Setting [10] is: Compound I-7 present at 4 μM, read-out: EC50.
Setting [11] is: EGFR inhibitor alone (Compound I-5 / I-7 not present), read-out: EC50.
[12] abbreviates: 18 nM osimertinib with 5 μM Compound I-7, FBS+ or pre-starved.

The structures appear in SMILES notation. Read-outs that look alike come from different tables or passages of the source.

Consider `COc1cc(N2CCN(C)CC2)ccc1Nc1nccc(-c2cn(C)c3cnccc23)n1` [AZ191], for which, in the assay on SW620 cells, the “fraction of cells in quiescent state (G0), based on fraction of cells G0+G1 phase” value is “no decrease in fraction of cells in quiescent state (G0)”. The IC50 in the assay on DYRK1B [1] is 17 nM.

`CCOC(=N)c1nc2ccc3ncnc(Nc4cc(F)c(F)cc4Cl)c3c2s1` [Compound I-7]: in the assay with SW620 cells, the “fraction of cells in quiescent state (G0), based on fraction of cells G0+G1 phase” value is listed as “significant decrease in fraction of cells in quiescent state (G0)”.

In the case of `COc1ncc2cc(C(=O)Nc3cc(C(=O)NCc4cccc(Cl)c4)ccc3Cl)c(=O)[nH]c2n1` [TC-S 7004], the “effectiveness against quiescent cancer cells” value in the assay on quiescent cancer cells is given as “effective against quiescent cancer cells in vitro”.

By EC50 is commonly meant the concentration giving half of the maximal effect. For `CN(C)C/C=C/C(=O)Nc1cc2c(Nc3ccc(F)c(Cl)c3)ncnc2cc1O[C@H]1CCOC1` [afatinib], the concentration giving a half-maximal response (EC50) with PC9 cells (Compound I-7 present at 3 μM) turned out to be 1.3 nM; with PC9 cells (Compound I-7 present at 6 μM), 0.4 nM; in the assay with PC9 cells (setting [7]), 2.1 nM; in the assay on A549 cells (Compound I-7 present at 3 μM), 2600 nM; with A549 cells (Compound I-7 present at 6 μM), 1000 nM; in the assay on A549 cells (setting [8]) it was 4700 nM. Further, the EC50 in the assay with PANC1 cells (Compound I-7 present at 2 μM) is 1800 nM; in the assay with PANC1 cells (Compound I-7 present at 4 μM), 1500 nM; with PANC1 cells (setting [7]), 1900 nM; in the assay on H1975 cells [2] (Compound I-7 present at 2 μM), 25.2 nM; in the assay on H1975 cells [2] (Compound I-7 present at 4 μM), 8.2 nM; in the assay with H1975 cells [2] (setting [8]) it was 89.4 nM.

As for `COc1cc2ncnc(Nc3ccc(F)c(Cl)c3)c2cc1NC(=O)/C=C/CN1CCCCC1` [dacomitinib], the EC50 was 9900 nM in the assay with PANC1 cells (setting [9]); 7100 nM in the assay with PANC1 cells (setting [10]); 11400 nM in the assay with PANC1 cells (setting [11]); 88.6 nM with H1975 cells [2] (Compound I-7 present at 2 μM); 34.8 nM in the assay on H1975 cells [2] (Compound I-7 present at 4 μM); 110 nM in the assay on H1975 cells [2] (setting [8]). Also, in [3], the “EGFR phosphorylation (ph-Y1068 EGFR)” value is “suppressed the EGFR phosphorylation”. The “expression of DYRK1B protein” value with DYRK1B [4] is given as “induced expression of DYRK1B protein similar to or higher than that produced by serum starvation”.

For `C#Cc1cccc(Nc2ncnc3cc(OCCOC)c(OCCOC)cc23)c1` [erlotinib], the EC50 with PC9 cells (Compound I-5 present at 2 μM) was determined as 9.3 nM; in the assay with PC9 cells (Compound I-5 present at 4 μM), 3.7 nM; with PC9 cells (setting [7]), 17.3 nM; in the assay with A549 cells (Compound I-7 present at 3 μM, read-out: EC50) it was 5900 nM; in the assay on A549 cells (Compound I-7 present at 6 μM, read-out: EC50), 400 nM; with A549 cells (EGFR inhibitor alone (Compound I-7 not present), read-out: EC50), 10400 nM. Further, the EC50 is above 30000 nM in the assay on PANC1 cells (Compound I-5 present at 2.5 μM, read-out: EC50); 14000 nM in the assay with PANC1 cells (Compound I-5 present at 5 μM, read-out: EC50); above 30000 nM in the assay with PANC1 cells (setting [11]); 6400 nM in the assay on MiaPaCa-2 cells (Compound I-5 present at 2.5 μM); 3500 nM in the assay on MiaPaCa-2 cells (Compound I-5 present at 5 μM); above 30000 nM in the assay with MiaPaCa-2 cells (erlotinib alone (Compound I-5 not present)). Moreover, the “fraction of cells in G0 (pharmacological quiescence)” value in assay [5] is given as “significant increase of fraction of cells in G0”.

With `CS(=O)(=O)CCNCc1ccc(-c2ccc3ncnc(Nc4ccc(OCc5cccc(F)c5)c(Cl)c4)c3c2)o1` [lapatinib], the “fraction of cells in G0 (pharmacological quiescence)” value in assay [5] is listed as “significant increase of fraction of cells in G0”.

Turning to `C=CC(=O)Nc1cc(Nc2nccc(-c3cn(C)c4ccccc34)n2)c(OC)cc1N(C)CCN(C)C` [osimertinib], the EC50 in the assay with PANC1 cells (setting [9]) was found to be 4600 nM; in the assay on PANC1 cells (setting [10]), 4500 nM; with PANC1 cells (setting [11]), 5300 nM; in the assay on H1975 cells [2] (Compound I-7 present at 2 μM) it was 7.9 nM; in the assay with H1975 cells [2] (Compound I-7 present at 4 μM), 4.2 nM; in the assay with H1975 cells [2] (setting [8]), 8.7 nM. For the same compound, the EC50 came to 0.68 nM in the assay with H1975 spheroids (regular growth media (FBS+), Compound I-7 not present); 0.28 nM in the assay with H1975 spheroids (regular growth media (FBS+), Compound I-7 present at 2.5 μM); 3.3 nM in the assay with H1975 spheroids (serum starvation (FBS−), Compound I-7 not present); 1 nM with H1975 spheroids (serum starvation (FBS−), Compound I-7 present at 2.5 μM). In addition, in the assay with H1975 cells [6] (18 nM osimertinib alone, pre-incubated in FBS+ or pre-starved in FBS− medium), the “fraction of cells in quiescent (G0) state” value was “even more effective than serum starvation (FBS−) at inducing a large fraction of the cells into the quiescent (G0) state”. Moreover, the “apoptotic cells (sub-G0 population)” value in the assay with H1975 cells [6] (setting [12]) is recorded as “significant increases in apoptotic cells”. Further, the “fraction of cells in G0” value in the assay with H1975 cells [6] (setting [12]) is on record as “reduced the fraction of cells in G0”. In addition, in assay [3], the “EGFR phosphorylation (ph-Y1068 EGFR)” value was “suppressed the EGFR phosphorylation”. Further, the “expression of DYRK1B protein” value in the assay with DYRK1B [4] is “induced expression of DYRK1B protein similar to or higher than that produced by serum starvation”.

On to `C=CC(=O)Nc1cccc(Nc2nc(Nc3ccc(N4CCN(C(C)=O)CC4)cc3OC)ncc2C(F)(F)F)c1` [rociletinib], for which the EC50 in the assay with PANC1 cells (setting [9]) worked out at 9900 nM; with PANC1 cells (setting [10]) it was 7100 nM; in the assay with PANC1 cells (setting [11]), 11400 nM; with H1975 cells [2] (Compound I-7 present at 2 μM), 22.5 nM; in the assay on H1975 cells [2] (Compound I-7 present at 4 μM), 14.9 nM; in the assay on H1975 cells [2] (setting [8]) it was 351 nM.
